Data taken from PubChem BioAssay (NCI).
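Tested at 5 concentrations; 48 h exposure; 96-well plates; endpoints linearly interpolated, else capped at highest concentration. GI50: concentration for 50% inhibition of growth. TGI: concentration producing complete growth inhibition.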

Key:
Assay in all cases: growth of human tumour cells (NCI), 48 h; in the data active = GI50 below about 0.43 µM; inactive = the rest
HCT-116 colon = tested on: HCT-116 colon
SNB-75 CNS = tested on: SNB-75 CNS
M14 melanoma = tested on: M14 melanoma
HCC-2998 colon = tested on: HCC-2998 colon
RXF 393 renal = tested on: RXF 393 renal
BT-549 breast = tested on: BT-549 breast
SK-MEL-2 melanoma = tested on: SK-MEL-2 melanoma
OVCAR-8 ovarian = tested on: OVCAR-8 ovarian
UACC-62 melanoma = tested on: UACC-62 melanoma
A498 renal = tested on: A498 renal
SF-295 CNS = tested on: SF-295 CNS
786-0 renal = tested on: 786-0 renal
SF-539 CNS = tested on: SF-539 CNS
OVCAR-3 ovarian = tested on: OVCAR-3 ovarian
OVCAR-4 ovarian = tested on: OVCAR-4 ovarian
MALME-3M melanoma = tested on: MALME-3M melanoma
HOP-92 NSCLC = tested on: HOP-92 NSCLC
NCI-H522 lung = tested on: NCI-H522 lung
SK-OV-3 ovarian = tested on: SK-OV-3 ovarian
HL-60(TB) leukemia = tested on: HL-60(TB) leukemia
NCI-H226 lung = tested on: NCI-H226 lung
MDA-N = tested on: MDA-N
COLO 205 colon = tested on: COLO 205 colon
NCI-H460 lung = tested on: NCI-H460 lung
NCI-H23 lung = tested on: NCI-H23 lung
SNB-19 CNS = tested on: SNB-19 CNS
HT29 colon = tested on: HT29 colon
IGROV1 ovarian = tested on: IGROV1 ovarian
NCI/ADR-RES ovarian = tested on: NCI/ADR-RES ovarian
HOP-62 NSCLC = tested on: HOP-62 NSCLC
SK-MEL-28 melanoma = tested on: SK-MEL-28 melanoma
CCRF-CEM leukemia = tested on: CCRF-CEM leukemia
LOX IMVI melanoma = tested on: LOX IMVI melanoma
OVCAR-5 ovarian = tested on: OVCAR-5 ovarian
SW-620 colon = tested on: SW-620 colon
SF-268 CNS = tested on: SF-268 CNS
EKVX NSCLC = tested on: EKVX NSCLC
U251 CNS = tested on: U251 CNS
MDA-MB-435 = tested on: MDA-MB-435
HS 578T breast = tested on: HS 578T breast
SR leukemia = tested on: SR leukemia
K-562 leukemia = tested on: K-562 leukemia
ACHN renal = tested on: ACHN renal
UO-31 renal = tested on: UO-31 renal
UACC-257 melanoma = tested on: UACC-257 melanoma
PC-3 prostate = tested on: PC-3 prostate
DU-145 prostate = tested on: DU-145 prostate
HCT-15 colon = tested on: HCT-15 colon
MDA-MB-231 breast = tested on: MDA-MB-231 breast
MCF7 breast = tested on: MCF7 breast
SN12C renal = tested on: SN12C renal
TK-10 renal = tested on: TK-10 renal
CAKI-1 renal = tested on: CAKI-1 renal
A549 NSCLC = tested on: A549 NSCLC
MOLT-4 leukemia = tested on: MOLT-4 leukemia
SK-MEL-5 melanoma = tested on: SK-MEL-5 melanoma
KM12 colon = tested on: KM12 colon
T-47D breast = tested on: T-47D breast
RPMI-8226 leukemia = tested on: RPMI-8226 leukemia

OC1C#CCSCC#C/C=C\1 (stereo unspecified)
29.3 µM: TGI (COLO 205 colon)
36.6 µM: TGI (SW-620 colon)
98.4 µM: TGI (CCRF-CEM leukemia)
39.5 µM: TGI (786-0 renal)
71.8 µM: TGI (HL-60(TB) leukemia)
36.5 µM: TGI (NCI-H460 lung)
68.1 µM: TGI (RXF 393 renal)
32.9 µM: TGI (NCI-H522 lung)
7.72 µM: TGI (NCI/ADR-RES ovarian)
> 100 µM: TGI (HCT-116 colon) | TGI (SNB-75 CNS) | TGI (M14 melanoma) | TGI (HCC-2998 colon) | TGI (BT-549 breast) | TGI (SK-MEL-2 melanoma) | TGI (UACC-62 melanoma) | TGI (A498 renal) | TGI (SF-295 CNS) | TGI (SF-539 CNS) | TGI (OVCAR-3 ovarian) | TGI (OVCAR-4 ovarian) | TGI (MALME-3M melanoma) | TGI (HOP-92 NSCLC) | TGI (SK-OV-3 ovarian) | TGI (NCI-H226 lung) | TGI (MDA-N) | TGI (NCI-H23 lung) | TGI (SNB-19 CNS) | TGI (HT29 colon) | TGI (IGROV1 ovarian) | TGI (HOP-62 NSCLC) | TGI (SK-MEL-28 melanoma) | TGI (LOX IMVI melanoma) | TGI (OVCAR-5 ovarian) | TGI (SF-268 CNS) | TGI (EKVX NSCLC) | TGI (U251 CNS) | TGI (MDA-MB-435) | TGI (HS 578T breast) | TGI (SR leukemia) | TGI (ACHN renal) | TGI (UO-31 renal) | TGI (UACC-257 melanoma) | TGI (PC-3 prostate) | TGI (DU-145 prostate) | TGI (HCT-15 colon) | TGI (MDA-MB-231 breast) | TGI (MCF7 breast) | TGI (SN12C renal) | TGI (TK-10 renal)
75.9 µM: TGI (K-562 leukemia)
77 µM: TGI (OVCAR-8 ovarian)

CC1(CCOCc2ccccc2)NC(=O)NC1=O (stereo unspecified)
> 100 µM: TGI (HCT-116 colon) | TGI (M14 melanoma) | TGI (HCC-2998 colon) | TGI (RXF 393 renal) | TGI (BT-549 breast) | TGI (SK-MEL-2 melanoma) | TGI (CAKI-1 renal) | TGI (OVCAR-8 ovarian) | TGI (UACC-62 melanoma) | TGI (A498 renal) | TGI (A549 NSCLC) | TGI (SF-295 CNS) | TGI (786-0 renal) | TGI (OVCAR-3 ovarian) | TGI (OVCAR-4 ovarian) | TGI (MALME-3M melanoma) | TGI (HOP-92 NSCLC) | TGI (NCI-H522 lung) | TGI (NCI-H226 lung) | TGI (MDA-N) | TGI (NCI-H460 lung) | TGI (NCI-H23 lung) | TGI (SNB-19 CNS) | TGI (HT29 colon) | TGI (IGROV1 ovarian) | TGI (NCI/ADR-RES ovarian) | TGI (HOP-62 NSCLC) | TGI (SK-MEL-28 melanoma) | TGI (MOLT-4 leukemia) | TGI (SK-MEL-5 melanoma) | TGI (LOX IMVI melanoma) | TGI (OVCAR-5 ovarian) | TGI (SW-620 colon) | TGI (SF-268 CNS) | TGI (EKVX NSCLC) | TGI (U251 CNS) | TGI (MDA-MB-435) | TGI (HS 578T breast) | TGI (SR leukemia) | TGI (K-562 leukemia) | TGI (ACHN renal) | TGI (UO-31 renal) | TGI (KM12 colon) | TGI (UACC-257 melanoma) | TGI (PC-3 prostate) | TGI (DU-145 prostate) | TGI (HCT-15 colon) | TGI (MDA-MB-231 breast) | TGI (SN12C renal) | TGI (TK-10 renal)

O=C1Nc2ccccc2/C1=N\[O-].O=C1Nc2ccccc2/C1=N\[O-].[Cu+2]
inactive: GI50 (HCT-116 colon) > 100 µM | GI50 (SNB-75 CNS) > 100 µM | GI50 (M14 melanoma) > 100 µM | GI50 (HCC-2998 colon) > 100 µM | GI50 (RXF 393 renal) > 100 µM | GI50 (BT-549 breast) > 100 µM | GI50 (SK-MEL-2 melanoma) > 100 µM | GI50 (CAKI-1 renal) > 100 µM | GI50 (OVCAR-8 ovarian) > 100 µM | GI50 (UACC-62 melanoma) > 100 µM | GI50 (A498 renal) > 100 µM | GI50 (A549 NSCLC) > 100 µM | GI50 (SF-295 CNS) > 100 µM | GI50 (786-0 renal) > 100 µM | GI50 (SF-539 CNS) > 100 µM | GI50 (OVCAR-3 ovarian) > 100 µM | GI50 (OVCAR-4 ovarian) > 100 µM | GI50 (MALME-3M melanoma) > 100 µM | GI50 (NCI-H522 lung) > 100 µM | GI50 (T-47D breast) > 100 µM | GI50 (SK-OV-3 ovarian) > 100 µM | GI50 (HL-60(TB) leukemia) > 100 µM | GI50 (NCI-H226 lung) > 100 µM | GI50 (MDA-N) > 100 µM | GI50 (COLO 205 colon) > 100 µM | GI50 (NCI-H460 lung) > 100 µM | GI50 (NCI-H23 lung) > 100 µM | GI50 (SNB-19 CNS) > 100 µM | GI50 (HT29 colon) > 100 µM | GI50 (IGROV1 ovarian) > 100 µM | GI50 (NCI/ADR-RES ovarian) > 100 µM | GI50 (HOP-62 NSCLC) > 100 µM | GI50 (RPMI-8226 leukemia) > 100 µM | GI50 (SK-MEL-28 melanoma) > 100 µM | GI50 (MOLT-4 leukemia) > 100 µM | GI50 (SK-MEL-5 melanoma) > 100 µM | GI50 (CCRF-CEM leukemia) > 100 µM | GI50 (LOX IMVI melanoma) > 100 µM | GI50 (OVCAR-5 ovarian) > 100 µM | GI50 (SW-620 colon) > 100 µM | GI50 (SF-268 CNS) > 100 µM | GI50 (EKVX NSCLC) > 100 µM | GI50 (U251 CNS) > 100 µM | GI50 (MDA-MB-435) > 100 µM | GI50 (HS 578T breast) > 100 µM | GI50 (K-562 leukemia) > 100 µM | GI50 (ACHN renal) > 100 µM | GI50 (UO-31 renal) > 100 µM | GI50 (KM12 colon) > 100 µM | GI50 (UACC-257 melanoma) > 100 µM | GI50 (PC-3 prostate) > 100 µM | GI50 (DU-145 prostate) > 100 µM | GI50 (HCT-15 colon) > 100 µM | GI50 (MDA-MB-231 breast) > 100 µM | GI50 (MCF7 breast) > 100 µM | GI50 (SN12C renal) > 100 µM | GI50 (TK-10 renal) > 100 µM
> 100 µM: TGI (HCT-116 colon) | TGI (SNB-75 CNS) | TGI (M14 melanoma) | TGI (HCC-2998 colon) | TGI (RXF 393 renal) | TGI (BT-549 breast) | TGI (SK-MEL-2 melanoma) | TGI (CAKI-1 renal) | TGI (OVCAR-8 ovarian) | TGI (UACC-62 melanoma) | TGI (A498 renal) | TGI (A549 NSCLC) | TGI (SF-295 CNS) | TGI (786-0 renal) | TGI (SF-539 CNS) | TGI (OVCAR-3 ovarian) | TGI (OVCAR-4 ovarian) | TGI (MALME-3M melanoma) | TGI (NCI-H522 lung) | TGI (T-47D breast) | TGI (SK-OV-3 ovarian) | TGI (HL-60(TB) leukemia) | TGI (NCI-H226 lung) | TGI (MDA-N) | TGI (COLO 205 colon) | TGI (NCI-H460 lung) | TGI (NCI-H23 lung) | TGI (SNB-19 CNS) | TGI (HT29 colon) | TGI (IGROV1 ovarian) | TGI (NCI/ADR-RES ovarian) | TGI (HOP-62 NSCLC) | TGI (RPMI-8226 leukemia) | TGI (SK-MEL-28 melanoma) | TGI (MOLT-4 leukemia) | TGI (SK-MEL-5 melanoma) | TGI (CCRF-CEM leukemia) | TGI (LOX IMVI melanoma) | TGI (OVCAR-5 ovarian) | TGI (SW-620 colon) | TGI (SF-268 CNS) | TGI (EKVX NSCLC) | TGI (U251 CNS) | TGI (MDA-MB-435) | TGI (HS 578T breast) | TGI (K-562 leukemia) | TGI (ACHN renal) | TGI (UO-31 renal) | TGI (KM12 colon) | TGI (UACC-257 melanoma) | TGI (PC-3 prostate) | TGI (DU-145 prostate) | TGI (HCT-15 colon) | TGI (MDA-MB-231 breast) | TGI (MCF7 breast) | TGI (SN12C renal) | TGI (TK-10 renal)
